SMILES strings stand for the structures. pIC50: −log10 of the molar value.

The target of this assay is Human Factor D (Homo sapiens (Human), UniProt P00746). As to the kind of experiment: Human Factor D assay (Z-L-Lys-SBzl / DTNB, absorbance at 405 nm). It is filed as biochemical. The note with it: Table 4; Human Factor D 80 nM, assay of Example 13. Put shortly: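 Human serum-purified Factor D (80 nM final) was preincubated with compound for 5 min at room temperature in 50 mM Tris, 1M NaCl, pH 7.5. IC50 came from nonlinear regression of rate versus compound concentration.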
Sequence of Human Factor D (P00746 26-253): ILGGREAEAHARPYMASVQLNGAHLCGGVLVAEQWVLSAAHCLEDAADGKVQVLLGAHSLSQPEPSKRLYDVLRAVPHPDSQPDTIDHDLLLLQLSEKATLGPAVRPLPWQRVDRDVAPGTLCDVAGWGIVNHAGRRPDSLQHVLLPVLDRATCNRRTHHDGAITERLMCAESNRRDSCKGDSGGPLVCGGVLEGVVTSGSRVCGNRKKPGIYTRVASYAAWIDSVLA
What is called pIC50 is the negative decadic logarithm of the IC50, by convention in mol/L. A low value points to a high IC50. For the compound `NC(=O)c1cc(O)cc(CC(=O)N2C[C@H](F)C[C@H]2C(=O)Nc2cccc(-c3ccccc3Cl)c2F)c1` [Compound 78, (2S,4R)-1-(2-(3-carbamoyl-5-hydroxyphenyl)acetyl)-N-(2′-chloro-2-fluoro-[1,1′-biphenyl]-3-yl)-4-fluoropyrrolidine-2-carboxamide], the pIC50 was above 6.00. With `CC(=O)c1nn(CC(=O)N2C[C@H](F)C[C@H]2C(=O)Nc2cccc(-c3cc(C(=O)O)c4nc[nH]c4c3)c2F)c2ccccc12` [Compound 80, 6-(3-((2S,4R)-1-(2-(3-acetyl-1H-indazol-1-yl)acetyl)-4-fluoropyrrolidine-2-carboxamido)-2-fluorophenyl)-1H-benzo[d]imidazole-4-carboxylic acid] the figure was above 6.00. With `COC(=O)Nc1nc2ccc(-c3cccc(NC(=O)[C@@H]4C[C@@H](F)CN4C(=O)Cn4nc(C(C)=O)c5ccccc54)c3F)c(Cl)c2[nH]1` [Compound 81, methyl (6-(3-((2S,4R)-1-(2-(3-acetyl-1H-indazol-1-yl)acetyl)-4-fluoropyrrolidine-2-carboxamido)-2-fluorophenyl)-7-chloro-1H-benzo[d]imidazol-2-yl)carbamate] the figure was above 6.00; with `CC(=O)c1nn(CC(=O)N2C[C@H](F)C[C@H]2C(=O)Nc2cccc(-c3ccc4c(c3)CCC(=O)N4)c2F)c2ccccc12` [Compound 82, (2S,4R)-1-(2-(3-acetyl-1H-indazol-1-yl)acetyl)-4-fluoro-N-(2-fluoro-3-(2-oxo-1,2,3,4-tetrahydroquinolin-6-yl)phenyl)pyrrolidine-2-carboxamide], above 6.00. For `CC(=O)c1nn(CC(=O)N2C[C@H](F)C[C@H]2C(=O)Nc2cccc(-c3ccc4nccnc4c3)c2F)c2ccccc12` [Compound 83, (2S,4R)-1-(2-(3-acetyl-1H-indazol-1-yl)acetyl)-4-fluoro-N-(2-fluoro-3-(quinoxalin-6-yl)phenyl)pyrrolidine-2-carboxamide] the value was above 6.00; for `CC(=O)c1nn(CC(=O)N2C[C@H](F)C[C@H]2C(=O)Nc2cccc(-c3ccc4ncn(CCN)c4c3Cl)c2F)c2ccccc12` [Compound 84, (2S,4R)-1-(2-(3-acetyl-1H-indazol-1-yl)acetyl)-N-(3-(1-(2-aminoethyl)-7-chloro-1H-benzo[d]imidazol-6-yl)-2-fluorophenyl)-4-fluoropyrrolidine-2-carboxamide], 5.00 to 6.00. `CC(=O)c1nn(CC(=O)N2C[C@H](F)C[C@H]2C(=O)Nc2cccc(-c3ccc4[nH]ccc4c3)c2F)c2ccccc12` [Compound 85, (2S,4R)-1-(2-(3-acetyl-1H-indazol-1-yl)acetyl)-4-fluoro-N-(2-fluoro-3-(1H-indol-5-yl)phenyl)pyrrolidine-2-carboxamide] had a pIC50 above 6.00. For `CC(=O)c1nn(CC(=O)N2[C@@H]3C[C@@H]3C[C@H]2C(=O)Nc2cccc(-c3cc(Cl)c4[nH]ccc4c3)c2F)c2ccccc12` [Compound 86, (1R,3S,5R)-2-(2-(3-acetyl-1H-indazol-1-yl)acetyl)-N-(3-(7-chloro-1H-indol-5-yl)-2-fluorophenyl)-2-azabicyclo[3.1.0]hexane-3-carboxamide] the value was below 5.00; for `NC(=O)c1nn(CC(=O)N2C[C@H](F)C[C@H]2C(=O)Nc2cccc(-c3ccc4c(c3)NC(=O)C4)c2F)c2ccccc12` [Compound 88, 1-(2-((2S,4R)-4-fluoro-2-((2-fluoro-3-(2-oxoindolin-6-yl)phenyl)carbamoyl)pyrrolidin-1-yl)-2-oxoethyl)-1H-indazole-3-carboxamide], above 6.00. With `N#CNC(=O)c1ccc(Cl)c(-c2cccc(NC(=O)[C@@H]3C[C@@H](F)CN3C(=O)Cn3nc(C(N)=O)c4ccccc43)c2F)c1` [Compound 89, 1-(2-((2S,4R)-2-((2′-chloro-5′-(cyanocarbamoyl)-2-fluoro-[1,1′-biphenyl]-3-yl)carbamoyl)-4-fluoropyrrolidin-1-yl)-2-oxoethyl)-1H-indazole-3-carboxamide] the figure was above 6.00; with `NC(=O)c1nn(CC(=O)N2C[C@H](F)C[C@H]2C(=O)Nc2cccc(-c3cc(Cl)c4[nH]ccc4c3)c2F)c2ccccc12` [Compound 90, 1-(2-((2S,4R)-2-((3-(7-chloro-1H-indol-5-yl)-2-fluorophenyl)carbamoyl)-4-fluoropyrrolidin-1-yl)-2-oxoethyl)-1H-indazole-3-carboxamide], above 6.00; with `NC(=O)c1nn(CC(=O)N2C[C@H](F)C[C@H]2C(=O)Nc2cccc(-c3ccc4c(c3)C(=O)NC4)c2F)c2ccccc12` [Compound 91, 1-(2-((2S,4R)-4-fluoro-2-((2-fluoro-3-(3-oxoisoindolin-5-yl)phenyl)carbamoyl)pyrrolidin-1-yl)-2-oxoethyl)-1H-indazole-3-carboxamide], above 6.00. The compound `NC(=O)c1nn(CC(=O)N2C[C@H](F)C[C@H]2C(=O)Nc2cccc(-c3ccc4oc(=O)[nH]c4c3)c2F)c2ccccc12` [Compound 92, 1-(2-((2S,4R)-4-fluoro-2-((2-fluoro-3-(2-oxo-2,3-dihydrobenzo[d]oxazol-5-yl)phenyl)carbamoyl)pyrrolidin-1-yl)-2-oxoethyl)-1H-indazole-3-carboxamide] had a pIC50 above 6.00. As to `NC(=O)c1nn(CC(=O)N2C[C@H](F)C[C@H]2C(=O)Nc2cccc(-c3ccc4c(c3)C(=O)CCC4)c2F)c2ccccc12` [Compound 93, 1-(2-((2S,4R)-4-fluoro-2-((2-fluoro-3-(8-oxo-5,6,7,8-tetrahydronaphthalen-2-yl)phenyl)carbamoyl)pyrrolidin-1-yl)-2-oxoethyl)-1H-indazole-3-carboxamide], the pIC50 was above 6.00. For the compound `CC(=O)c1nn(CC(=O)N2C[C@H](F)C[C@H]2C(=O)Nc2cccc(-c3cc(C(=O)NC#N)ccc3Cl)c2F)c2ccccc12` [Compound 95, (2S,4R)-1-(2-(3-acetyl-1H-indazol-1-yl)acetyl)-N-(2′-chloro-5′-(cyanocarbamoyl)-2-fluoro-[1,1′-biphenyl]-3-yl)-4-fluoropyrrolidine-2-carboxamide], the pIC50 is above 6.00. For `CC(=O)c1nn(CC(=O)N2C[C@H](F)C[C@H]2C(=O)Nc2cccc(-c3ccc4c(c3)NC(=O)NC4)c2F)c2ccccc12` [Compound 96, (2S,4R)-1-(2-(3-acetyl-1H-indazol-1-yl)acetyl)-4-fluoro-N-(2-fluoro-3-(2-oxo-1,2,3,4-tetrahydroquinazolin-7-yl)phenyl)pyrrolidine-2-carboxamide] the value was above 6.00. For `CC(=O)c1nn(CC(=O)N2C[C@H](F)C[C@H]2C(=O)Nc2cccc(-c3nc(Cl)c4nc[nH]c4n3)c2F)c2ccccc12` [Compound 99, (2S,4R)-1-(2-(3-acetyl-1H-indazol-1-yl)acetyl)-N-(3-(6-chloro-9H-purin-2-yl)-2-fluorophenyl)-4-fluoropyrrolidine-2-carboxamide] the value was above 6.00; for `CC(=O)c1nn(CC(=O)N2C[C@H](F)C[C@H]2C(=O)Nc2cccc(-c3ccc4sc(N)nc4c3)c2F)c2ccccc12` [Compound 100, (2S,4R)-1-(2-(3-acetyl-1H-indazol-1-yl)acetyl)-N-(3-(2-aminobenzo[d]thiazol-5-yl)-2-fluorophenyl)-4-fluoropyrrolidine-2-carboxamide], above 6.00.

Values taken from patent US10807952B2 (Achillion Pharmaceuticals, Inc., priority 2015, dated 2020).
